Assay results as given in US20160222014A1, “COMPOUNDS FOR REGULATING FAK AND/OR SRC PATHWAYS” (ASANA BIOSCIENCES, LLC, priority 2013, published 2016).
One block for each molecule: values may come before it.

Columns and labels:
recombinant human FAK1 = target: T1, recombinant human FAK1 (Homo sapiens, UniProt Q05397); assay: FAK1 HTRF assay; assay type: biochemical
T1 construct: fused on or other part: N-terminal 6xHis tag
How it was run: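 IC50 values derive from HTRF % inhibition (ratio 665/620 nm, Eu–anti-phosphotyrosine 0.1 nM, SA-APC 12 nM). The kinase step ran 45 min at room temperature, pairing 10 nM His-FAK1(692–end) from baculovirus with 0.5 μM gastrin Tyr87 biotin-peptide and a reagent at 10 μM final, pH 7.4. Compound dilutions began at 10 μM.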

JAK2 = JAK2 (Homo sapiens, UniProt O60674); assay: JAK2 biochemical potency; conditions: read-out: JAK2 HTRF IC50
Sequence of JAK2 (O60674 whole entry, species assumed): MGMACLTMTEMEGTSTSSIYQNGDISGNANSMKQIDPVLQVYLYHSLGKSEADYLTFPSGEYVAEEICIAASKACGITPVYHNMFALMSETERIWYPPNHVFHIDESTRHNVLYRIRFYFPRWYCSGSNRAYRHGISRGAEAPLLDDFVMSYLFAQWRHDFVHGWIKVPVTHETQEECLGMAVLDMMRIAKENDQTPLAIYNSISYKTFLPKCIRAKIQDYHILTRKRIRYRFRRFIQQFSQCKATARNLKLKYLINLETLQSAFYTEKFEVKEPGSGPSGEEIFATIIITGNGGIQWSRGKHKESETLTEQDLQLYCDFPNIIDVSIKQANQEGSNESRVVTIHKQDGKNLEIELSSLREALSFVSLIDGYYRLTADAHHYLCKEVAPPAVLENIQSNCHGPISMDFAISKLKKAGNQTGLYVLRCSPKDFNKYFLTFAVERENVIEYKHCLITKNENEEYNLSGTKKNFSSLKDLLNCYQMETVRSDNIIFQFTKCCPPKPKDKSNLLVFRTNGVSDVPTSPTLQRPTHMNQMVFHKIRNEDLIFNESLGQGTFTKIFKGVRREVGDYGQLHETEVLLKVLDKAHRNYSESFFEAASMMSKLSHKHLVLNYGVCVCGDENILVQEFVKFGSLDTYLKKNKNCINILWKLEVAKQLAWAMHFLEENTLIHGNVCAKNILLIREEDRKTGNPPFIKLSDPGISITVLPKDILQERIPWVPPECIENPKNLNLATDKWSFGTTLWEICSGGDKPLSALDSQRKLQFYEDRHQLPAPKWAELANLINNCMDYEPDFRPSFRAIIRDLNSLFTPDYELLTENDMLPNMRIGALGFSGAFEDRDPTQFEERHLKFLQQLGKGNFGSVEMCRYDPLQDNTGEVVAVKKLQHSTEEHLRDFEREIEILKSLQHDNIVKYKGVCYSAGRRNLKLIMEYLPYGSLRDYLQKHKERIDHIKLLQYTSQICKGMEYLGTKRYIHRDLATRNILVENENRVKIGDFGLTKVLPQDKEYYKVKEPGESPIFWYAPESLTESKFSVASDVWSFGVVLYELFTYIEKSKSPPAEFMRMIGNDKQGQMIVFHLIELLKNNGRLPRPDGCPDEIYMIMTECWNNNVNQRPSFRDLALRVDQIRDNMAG

Recombinant Src enzyme = target: T2, Recombinant Src enzyme (Homo sapiens, UniProt P12931); assay: Src HTRF assay; assay type: biochemical
T2 construct: purchased Millipore 14-326; host or cells: Sf21 insect cells
T2 sequence (P12931 whole entry): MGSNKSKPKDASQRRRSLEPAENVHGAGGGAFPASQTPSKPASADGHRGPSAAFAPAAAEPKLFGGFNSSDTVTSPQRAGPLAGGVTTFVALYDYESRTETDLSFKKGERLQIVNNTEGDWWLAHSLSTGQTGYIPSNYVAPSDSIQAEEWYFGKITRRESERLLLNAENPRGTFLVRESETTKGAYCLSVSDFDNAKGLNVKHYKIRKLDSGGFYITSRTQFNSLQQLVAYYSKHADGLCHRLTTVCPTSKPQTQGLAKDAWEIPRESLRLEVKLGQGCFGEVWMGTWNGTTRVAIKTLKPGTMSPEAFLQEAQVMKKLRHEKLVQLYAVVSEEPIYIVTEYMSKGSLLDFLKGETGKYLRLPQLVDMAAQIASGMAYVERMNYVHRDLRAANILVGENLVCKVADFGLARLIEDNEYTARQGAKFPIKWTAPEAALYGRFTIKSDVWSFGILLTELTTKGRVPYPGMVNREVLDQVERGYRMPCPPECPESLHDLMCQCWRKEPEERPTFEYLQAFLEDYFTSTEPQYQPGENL
How it was run: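 Run as for the FAK HTRF assay (same buffer, supplements, compound preparation and procedure), with dasatinib included. Reaction contained 0.5 μM biotin-tagged Tyk2 synthetic peptide, 5 nM Src made in Sf21 cells, and a pH7.4-buffer-prepared component at 10 μM final.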

AURKB (Aurora B) enzyme = target: T3, AURKB (Aurora B) enzyme (Homo sapiens, UniProt Q96GD4); assay: Aurora B HTRF assay; assay type: biochemical; conditions: read-out: AuroraB IC50
T3 construct: purchased Invitrogen PVR 130
T3 sequence (Q96GD4 whole entry): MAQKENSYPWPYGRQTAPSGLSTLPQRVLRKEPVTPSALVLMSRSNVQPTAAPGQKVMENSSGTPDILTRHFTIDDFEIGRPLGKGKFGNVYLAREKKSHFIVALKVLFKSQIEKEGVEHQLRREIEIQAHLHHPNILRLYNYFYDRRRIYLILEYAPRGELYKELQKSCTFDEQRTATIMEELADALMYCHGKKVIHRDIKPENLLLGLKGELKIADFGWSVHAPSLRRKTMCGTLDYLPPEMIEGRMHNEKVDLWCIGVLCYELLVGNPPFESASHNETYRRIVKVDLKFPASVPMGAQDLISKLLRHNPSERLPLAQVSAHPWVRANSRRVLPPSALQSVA
How it was run: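 Enzyme (5 nM final) and ULight-labelled PLK Ser137 peptide (50 nM) reacted 1 h at room temperature; a 30 μM final component was also present. Detection used EDTA-containing buffer with europium anti-phospho-PLK(Ser137) antibody at 2 nM, 1 h, then time-resolved FRET readout.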

T1 sequence (Q05397 422-680 limits assumed): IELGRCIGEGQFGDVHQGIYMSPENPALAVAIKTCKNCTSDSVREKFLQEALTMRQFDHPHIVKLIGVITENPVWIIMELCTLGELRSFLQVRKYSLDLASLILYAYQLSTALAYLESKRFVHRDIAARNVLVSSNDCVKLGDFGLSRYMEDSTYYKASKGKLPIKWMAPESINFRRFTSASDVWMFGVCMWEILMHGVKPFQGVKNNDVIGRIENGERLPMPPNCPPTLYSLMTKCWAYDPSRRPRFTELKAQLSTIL

SMILES: CC(=O)Nc1cccc(Nc2cc3c(ccn3S(=O)(=O)c3ccccc3OC(F)(F)F)cn2)c1 [Example 58]
IC50 (JAK2): > 1000 nM
IC50 (Recombinant Src enzyme): > 1000 nM
IC50 (AURKB (Aurora B) enzyme): > 1000 nM

SMILES: CC(=O)Nc1ccc(Nc2cc3c(cn2)cnn3Cc2cccnc2N(C)S(C)(=O)=O)cc1 [Example 66]
IC50 (JAK2): > 1000 nM
IC50 (Recombinant Src enzyme): > 1000 nM
IC50 (AURKB (Aurora B) enzyme): > 1000 nM

SMILES: CC(=O)Nc1cccc(Nc2cc3c(cn2)c(C)nn3Cc2ccccc2OC(F)F)c1 [Example 78]
IC50 (recombinant human FAK1): > 1000 nM
IC50 (JAK2): > 1000 nM
IC50 (Recombinant Src enzyme): > 1000 nM

SMILES: Cc1nn(Cc2ccccc2OC(F)F)c2cc(Nc3ccc4c(c3)CCC(=O)N4)ncc12 [Example 80]
IC50 (JAK2): > 1000 nM
IC50 (Recombinant Src enzyme): > 1000 nM
IC50 (AURKB (Aurora B) enzyme): > 1000 nM

SMILES: CC(=O)Nc1ccc(Nc2cc3c(cn2)c(C)nn3Cc2ccccc2OC(F)F)cc1 [Example 81]
IC50 (recombinant human FAK1): > 1000 nM
IC50 (JAK2): > 1000 nM
IC50 (Recombinant Src enzyme): > 1000 nM

SMILES: O=S(=O)(c1ccccc1OC(F)(F)F)n1ccc2cnc(Nc3ccc(N4CCOCC4)cc3)cc21 [Example 113]
IC50 (JAK2): > 1000 nM
IC50 (Recombinant Src enzyme): > 1000 nM
IC50 (AURKB (Aurora B) enzyme): < 20 nM

SMILES: O=c1[nH]c2ccc(Nc3cc4c(ccn4S(=O)(=O)c4ccccc4OC(F)(F)F)cn3)cc2[nH]1 [Example 118]
IC50 (recombinant human FAK1): < 20 nM
IC50 (JAK2): > 1000 nM
IC50 (Recombinant Src enzyme): > 1000 nM
IC50 (AURKB (Aurora B) enzyme): < 20 nM

SMILES: COc1cc(N2CCNCC2)ccc1Nc1ncc2ccn(S(=O)(=O)c3ccccc3C#N)c2n1 [Example 336]
IC50 (recombinant human FAK1): < 20 nM
IC50 (JAK2): > 1000 nM
IC50 (Recombinant Src enzyme): > 1000 nM

SMILES: COc1cc(N2CCNCC2)ccc1Nc1ncc2ccn(Cc3cccnc3N(C)S(C)(=O)=O)c2n1 [Example 337]
IC50 (recombinant human FAK1): < 20 nM
IC50 (JAK2): > 1000 nM
IC50 (Recombinant Src enzyme): > 1000 nM

SMILES: COc1cc(N2CCN(CCO)CC2)ccc1Nc1ncc2ccn(S(=O)(=O)c3cccc4cccnc34)c2n1 [Example 347]
IC50 (recombinant human FAK1): < 20 nM
IC50 (JAK2): > 1000 nM
IC50 (Recombinant Src enzyme): > 1000 nM

SMILES: COc1cc(N2CCNCC2)ccc1Nc1cc2c(ccn2S(=O)(=O)c2ccccc2C#N)cn1 [Example 348]
IC50 (recombinant human FAK1): < 20 nM
IC50 (JAK2): > 1000 nM
IC50 (Recombinant Src enzyme): > 1000 nM

Other lines, results leading:

IC50 (recombinant human FAK1): < 20 nM
IC50 (JAK2): < 20 nM
IC50 (Recombinant Src enzyme): < 20 nM
IC50 (AURKB (Aurora B) enzyme): < 20 nM
SMILES: CN(c1ncccc1Cn1ccc2cnc(Nc3ccc4c(c3)CCC(=O)N4)nc21)S(C)(=O)=O [Example 5]

IC50 (JAK2): > 1000 nM
IC50 (Recombinant Src enzyme): > 1000 nM
SMILES: CC(=O)Nc1ccc(Nc2cc3c(ccn3S(=O)(=O)c3cccc(OC(F)(F)F)c3)cn2)cc1 [Example 54]

IC50 (JAK2): > 1000 nM
IC50 (Recombinant Src enzyme): > 1000 nM
IC50 (AURKB (Aurora B) enzyme): > 1000 nM
SMILES: CC(=O)Nc1cccc(Nc2cc3c(ccn3S(=O)(=O)c3cccc(OC(F)(F)F)c3)cn2)c1 [Example 55]

IC50 (JAK2): < 20 nM
IC50 (Recombinant Src enzyme): < 20 nM
IC50 (AURKB (Aurora B) enzyme): < 20 nM
SMILES: Cc1cc(Nc2ncc3ccn(Cc4cccnc4N(C)S(C)(=O)=O)c3n2)ccc1N1CCNCC1 [Example 197]

IC50 (JAK2): < 20 nM
IC50 (Recombinant Src enzyme): < 20 nM
IC50 (AURKB (Aurora B) enzyme): < 20 nM
SMILES: CN(c1ncccc1Cn1ccc2cnc(Nc3ccc(C4=CCNCC4)cc3)nc21)S(C)(=O)=O [Example 206]

IC50 (recombinant human FAK1): < 20 nM
IC50 (JAK2): < 20 nM
IC50 (Recombinant Src enzyme): < 20 nM
SMILES: CN(c1ccccc1Cn1ccc2cnc(Nc3ccc(N4CCNCC4)cc3)nc21)S(C)(=O)=O [Example 214]

IC50 (JAK2): < 20 nM
IC50 (Recombinant Src enzyme): < 20 nM
IC50 (AURKB (Aurora B) enzyme): < 20 nM
SMILES: N#Cc1ccccc1S(=O)(=O)n1ncc2cnc(Nc3ccc4c(c3)CCC(=O)N4)nc21 [Example 220]

IC50 (recombinant human FAK1): < 20 nM
IC50 (JAK2): < 20 nM
IC50 (AURKB (Aurora B) enzyme): < 20 nM
SMILES: C[C@@H]1CN(c2ccc(Nc3ncc4ccn(Cc5ccccc5N(C)S(C)(=O)=O)c4n3)cc2)CCN1 [Example 448, (R)—N-methyl-N-(2-((2-((4-(3-methylpiperazin-1-yl)phenyl)amino)-7H-pyrrolo[2,3-d]pyrimidin-7-yl)methyl)phenyl)methanesulfonamide]

IC50 (recombinant human FAK1): < 20 nM
IC50 (JAK2): < 20 nM
IC50 (AURKB (Aurora B) enzyme): < 20 nM
SMILES: C[C@H]1CN(c2ccc(Nc3ncc4ccn(Cc5ccccc5N(C)S(C)(=O)=O)c4n3)cc2)CCN1 [Example 467]

IC50 (recombinant human FAK1): < 20 nM
IC50 (JAK2): < 20 nM
IC50 (AURKB (Aurora B) enzyme): < 20 nM
SMILES: CN(C)C1CCN(c2ccc(Nc3ncc4ccn(Cc5ccccc5N(C)S(C)(=O)=O)c4n3)cc2)CC1 [Example 468]
